Reference: the OligoGym collection
“And” between values parts separate entries of the source, which are not always exact repeats. Equal entries are not always repeated. After the bases stand the sugars from the 5' end (letter, count) and the backbone: PS all phosphorothioate, else s phosphorothioate and o phosphodiester by linkage. Methylation of C is not given here. e = 2'-O-(2-methoxyethyl) (MOE); k = constrained ethyl (cEt); d = 2'-deoxy (DNA)

Biological target: IRF4
Conditions: ASO

Question: Which target mRNA inhibition (SK-MEL-28, 4 µM) does the source give for GGGAGAGCGGAGGCGG (sugars k3 d10 k3, PS) here?
Answer: Its target mRNA inhibition is 22%.

Question: For GGGATTCCGCGCGCAG (sugars k3 d10 k3, PS), which target mRNA inhibition (SK-MEL-28, 4 µM) is on record?
Answer: Its target mRNA inhibition is 14%.

Question: For GGGCAACTTTAACCAT (sugars k3 d10 k3, PS), which target mRNA inhibition (SK-MEL-28, 4 µM) is on record?
Answer: Its target mRNA inhibition is 8%.

Question: GGGCATGTGACTGGAG (sugars k3 d10 k3, PS) was tested. Which target mRNA inhibition (SK-MEL-28, 4 µM) did it give?
Answer: The target mRNA inhibition was 50%.

Question: How did the target mRNA inhibition (SK-MEL-28, 4 µM) turn out when GGGCCCCGTGAAACAG (sugars k3 d10 k3, PS) was run?
Answer: The target mRNA inhibition was 33%.

Question: For GGGTAGAGCAGCTCCC (sugars k3 d10 k3, PS), which target mRNA inhibition (MM.1R, 1 µM) is on record?
Answer: The target mRNA inhibition was -16%.

Question: For GGGTGCTCTTACAGCC (sugars k3 d10 k3, PS), which target mRNA inhibition (MM.1R, 1 µM) is on record?
Answer: Its target mRNA inhibition is -2%.

Question: Which target mRNA inhibition (MM.1R, 1 µM) does the source give for GGGTGGCATCATGTAG (sugars k3 d10 k3, PS) here?
Answer: The target mRNA inhibition was 27%.

Question: Which target mRNA inhibition (SK-MEL-28, 4 µM) does the source give for GGGTTAAATATTCTTC (sugars k3 d10 k3, PS) here?
Answer: The target mRNA inhibition was 52%.

Question: For GGTAAGATCTCCATGG (sugars k3 d10 k3, PS), which target mRNA inhibition (SK-MEL-28, 4 µM) is on record?
Answer: The target mRNA inhibition was 45%.

Question: Which target mRNA inhibition (SK-MEL-28, 4 µM) does the source give for GGTCACTTGGTTCTCT (sugars k3 d10 k3, PS) here?
Answer: Its target mRNA inhibition is 79%.

Question: GGTCAGAATCTTGAAA (sugars k3 d10 k3, PS) was tested. Which target mRNA inhibition (SK-MEL-28, 4 µM) did it give?
Answer: Its target mRNA inhibition is 9%.

Question: Which results are given for GGTCTGGAAACTCCTC (sugars k3 d10 k3, PS)?
Answer: target mRNA inhibition (MM.1R, 0.074 µM): 13%; target mRNA inhibition (MM.1R, 0.222 µM): 14%; target mRNA inhibition (MM.1R, 0.666 µM): 12%; target mRNA inhibition (MM.1R, 2 µM): 17%; target mRNA inhibition (SK-MEL-28, 0.185 µM): 1%; target mRNA inhibition (SK-MEL-28, 4 µM): 52%; target mRNA inhibition (SK-MEL-28, 5 µM): 63%; target mRNA inhibition (SK-MEL-28, 15 µM): 86%

Question: With GGTCTGGAAACTCCTC (sugars k4 d8 k4, PS) as the sequence, how does the target mRNA inhibition (SK-MEL-28, 4 µM) read?
Answer: Its target mRNA inhibition is 31%.

Question: Which target mRNA inhibition (MM.1R, 1 µM) does the source give for GGTGCTCCTAAATCAC (sugars k3 d10 k3, PS) here?
Answer: Its target mRNA inhibition is -1%.

Question: For GGTTGGCTGGTCTTTG (sugars k3 d10 k3, PS), which target mRNA inhibition (MM.1R, 0.0625 µM) is on record?
Answer: Its target mRNA inhibition is -2% and 15%.

Question: And the target mRNA inhibition (MM.1R, 0.25 µM)?
Answer: The target mRNA inhibition was 16% and 20%.

Question: And the target mRNA inhibition (MM.1R, 1 µM)?
Answer: The target mRNA inhibition was 49% and 35%.

Question: And the target mRNA inhibition (MM.1R, 4 µM)?
Answer: The target mRNA inhibition was 66% and 70%.

Question: For “GGTTGGCTGGTCTTTG (sugars kkdddddddddkekek, PS)”, which target mRNA inhibition (MM.1R, 0.0625 µM) is on record?
Answer: The target mRNA inhibition was 34%.

Question: And the target mRNA inhibition (MM.1R, 0.25 µM)?
Answer: The target mRNA inhibition was 44%.

Question: What about the target mRNA inhibition (MM.1R, 1 µM) of the same sequence?
Answer: Its target mRNA inhibition is 67% and 63%.

Question: And the target mRNA inhibition (MM.1R, 4 µM)?
Answer: Its target mRNA inhibition is 82%.

Question: GGTTTCAGTTGTAAAT (sugars k3 d10 k3, PS) was tested. Which target mRNA inhibition (SK-MEL-28, 4 µM) did it give?
Answer: Its target mRNA inhibition is 58%.

Question: Which target mRNA inhibition (SK-MEL-28, 4 µM) does the source give for GTAAAACATAACTTAC (sugars k3 d10 k3, PS) here?
Answer: Its target mRNA inhibition is 8%.

Question: GTAAACTGAAAGACCC (sugars k3 d10 k3, PS) was tested. Which target mRNA inhibition (SK-MEL-28, 4 µM) did it give?
Answer: Its target mRNA inhibition is 35%.

Question: GTAAGGGCTGCTCATT (sugars k3 d10 k3, PS) was tested. Which target mRNA inhibition (SK-MEL-28, 4 µM) did it give?
Answer: The target mRNA inhibition was 52%.

Question: For GTAATCTTCTGGATTG (sugars k3 d10 k3, PS), which target mRNA inhibition (SK-MEL-28, 4 µM) is on record?
Answer: Its target mRNA inhibition is 29%.

Question: For GTAATTTTAAGGCCCT (sugars k3 d10 k3, PS), which target mRNA inhibition (SK-MEL-28, 4 µM) is on record?
Answer: The target mRNA inhibition was 55%.

Question: Which target mRNA inhibition (MM.1R, 1 µM) does the source give for GTACGAGCACATGTCA (sugars k3 d10 k3, PS) here?
Answer: The target mRNA inhibition was 0%.

Question: With GTACTTGCCGCTGTCG (sugars k3 d10 k3, PS) as the sequence, how does the target mRNA inhibition (SK-MEL-28, 4 µM) read?
Answer: Its target mRNA inhibition is 27%.

Question: Which target mRNA inhibition (SK-MEL-28, 4 µM) does the source give for GTAGACCACAGTGAAG (sugars k3 d10 k3, PS) here?
Answer: Its target mRNA inhibition is 29%.

Question: For GTAGAGGAGGAGGACT (sugars k3 d10 k3, PS), which target mRNA inhibition (SK-MEL-28, 4 µM) is on record?
Answer: The target mRNA inhibition was 16%.

Question: Which target mRNA inhibition (SK-MEL-28, 4 µM) does the source give for GTAGGACAGACAAAAA (sugars k3 d10 k3, PS) here?
Answer: Its target mRNA inhibition is 23%.

Question: GTAGGAGTGTAACTGA (sugars k3 d10 k3, PS) was tested. Which target mRNA inhibition (SK-MEL-28, 4 µM) did it give?
Answer: Its target mRNA inhibition is 41%.

Question: Which target mRNA inhibition (MM.1R, 1 µM) does the source give for “GTAGTATGAGAAACGG (sugars e1 k2 d9 k2 e2, PS)” here?
Answer: Its target mRNA inhibition is 29%.

Question: Which target mRNA inhibition (MM.1R, 1 µM) does the source give for “GTAGTATGAGAAACGG (sugars k2 d9 e3 k2, PS)” here?
Answer: Its target mRNA inhibition is 51%.

Question: For “GTAGTATGAGAAACGG (sugars k3 d9 k3 e1, PS)”, which target mRNA inhibition (MM.1R, 1 µM) is on record?
Answer: Its target mRNA inhibition is 40%.

Question: With “GTAGTATGAGAAACGG (sugars kkdddddddddekeke, PS)” as the sequence, how does the target mRNA inhibition (MM.1R, 1 µM) read?
Answer: The target mRNA inhibition was 35%.

Question: With “GTAGTATGAGAAACGG (sugars kkdddddddddkdkdk, PS)” as the sequence, how does the target mRNA inhibition (MM.1R, 1 µM) read?
Answer: Its target mRNA inhibition is 32%.

Question: For GTATACATCACTGCAG (sugars k3 d10 k3, PS), which target mRNA inhibition (SK-MEL-28, 4 µM) is on record?
Answer: The target mRNA inhibition was 44%.

Question: With GTATGTAGCAATGTGA (sugars k3 d10 k3, PS) as the sequence, how does the target mRNA inhibition (SK-MEL-28, 4 µM) read?
Answer: Its target mRNA inhibition is 21%.

Question: Which target mRNA inhibition (MM.1R, 0.0625 µM) does the source give for GTATTTATAACCGGTA (sugars k3 d10 k3, PS) here?
Answer: The target mRNA inhibition was -7% and 4% and -9%.

Question: What about the target mRNA inhibition (MM.1R, 0.074 µM) of the same sequence?
Answer: The target mRNA inhibition was -19%.

Question: What about the target mRNA inhibition (MM.1R, 0.222 µM) of the same sequence?
Answer: The target mRNA inhibition was 4%.

Question: And the target mRNA inhibition (MM.1R, 0.25 µM)?
Answer: Its target mRNA inhibition is 8% and 9% and 21%.

Question: And the target mRNA inhibition (MM.1R, 0.666 µM)?
Answer: The target mRNA inhibition was 7%.

Question: What about the target mRNA inhibition (MM.1R, 1 µM) of the same sequence?
Answer: The target mRNA inhibition was 34% and 36% and 37%.

Question: And the target mRNA inhibition (MM.1R, 2 µM)?
Answer: Its target mRNA inhibition is 33%.

Question: What about the target mRNA inhibition (MM.1R, 4 µM) of the same sequence?
Answer: Its target mRNA inhibition is 77% and 74% and 75%.

Question: And the target mRNA inhibition (SK-MEL-28, 4 µM)?
Answer: Its target mRNA inhibition is 67%.
